# pIC50: −log10 of the molar value.
# Test system: K24384-001-R-PDC complex spheroids, viability
# Assay: Anticancer human tumor K24384-001-R-PDC patient-derived pancreatic adenocarcinoma cell line growth inhibition [GQUAD]
# Conditions: for pIC50: curve of first compound; for viability, T/C: stronger effect = lower value
# Summary of the method: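 Multi-cell-type spheroids of tumor cells with HUVEC and mesenchymal stem cells, treated with drug combinations. Concentrations descend in half-log steps from near clinical Cmax, or from 10 microM where Cmax is unknown; viability read-out.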
# [1] = second compound 0.0316 µM, first compound 0.0316 µM
# [2] = second compound 0.0316 µM, first compound 0.1 µM
# [3] = second compound 0.0316 µM, first compound 0.316 µM
# [4] = second compound 0.0316 µM, first compound 1 µM
# [5] = second compound 0.0316 µM, first compound 3.16 µM
# [6] = second compound 0.0316 µM, first compound 10 µM
# [7] = second compound 0.1 µM, first compound 0.0316 µM
# [8] = second compound 0.1 µM, first compound 0.1 µM
# [9] = second compound 0.1 µM, first compound 0.316 µM
# [10] = second compound 0.1 µM, first compound 1 µM
# [11] = second compound 0.1 µM, first compound 3.16 µM
# [12] = second compound 0.1 µM, first compound 10 µM
# [13] = second compound 0.316 µM, first compound 0.0316 µM
# [14] = second compound 0.316 µM, first compound 0.1 µM
# [15] = second compound 0.316 µM, first compound 0.316 µM
# [16] = second compound 0.316 µM, first compound 1 µM
# [17] = second compound 0.316 µM, first compound 3.16 µM
# [18] = second compound 0.316 µM, first compound 10 µM
# [19] = second compound 1 µM, first compound 0.0316 µM
# [20] = second compound 1 µM, first compound 0.1 µM
# [21] = second compound 1 µM, first compound 0.316 µM
# [22] = second compound 1 µM, first compound 1 µM
# [23] = second compound 1 µM, first compound 3.16 µM
# [24] = second compound 1 µM, first compound 10 µM
# [25] = second compound 3.16 µM, first compound 0.0316 µM
# [26] = second compound 3.16 µM, first compound 0.1 µM
# [27] = second compound 3.16 µM, first compound 0.316 µM
# [28] = second compound 3.16 µM, first compound 1 µM
# [29] = second compound 3.16 µM, first compound 3.16 µM
# [30] = second compound 3.16 µM, first compound 10 µM
# [31] = second compound 10 µM, first compound 0.0316 µM
# [32] = second compound 10 µM, first compound 0.1 µM
# [33] = second compound 10 µM, first compound 0.316 µM
# [34] = second compound 10 µM, first compound 1 µM
# [35] = second compound 10 µM, first compound 3.16 µM
# [36] = second compound 10 µM, first compound 10 µM
# 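Further: spheroids exposed to compounds for seven days.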
compound,measurement,setting,value
C=CCn1c(=O)c2cnc(Nc3ccc(N4CCN(C)CC4)cc3)nc2n1-c1cccc(C(C)(C)O)n1 + Cc1[nH]c2ccc(F)cc2c1-c1nc2c3cccnc3c3ncccc3c2[nH]1,pIC50,second compound 0.0316 µM,6.36
same,pIC50,second compound 0.1 µM,6.55
same,pIC50,second compound 0.316 µM,6.38
same,pIC50,second compound 1 µM,6.62
same,pIC50,second compound 3.16 µM,6.72
same,pIC50,second compound 10 µM,6.80
same,"viability, T/C",[1],94.8%
same,"viability, T/C",[2],77.8%
same,"viability, T/C",[3],63.1%
same,"viability, T/C",[4],19.3%
same,"viability, T/C",[5],14.9%
same,"viability, T/C",[6],16.6%
same,"viability, T/C",[7],98.7%
same,"viability, T/C",[8],95%
same,"viability, T/C",[9],45.5%
same,"viability, T/C",[10],19.7%
same,"viability, T/C",[11],16.8%
same,"viability, T/C",[12],18.8%
same,"viability, T/C",[13],89.6%
same,"viability, T/C",[14],84.5%
same,"viability, T/C",[15],60.6%
same,"viability, T/C",[16],17%
same,"viability, T/C",[17],18.8%
same,"viability, T/C",[18],15.2%
same,"viability, T/C",[19],79.5%
same,"viability, T/C",[20],71.9%
same,"viability, T/C",[21],43.6%
same,"viability, T/C",[22],17.2%
same,"viability, T/C",[23],18.4%
same,"viability, T/C",[24],16.6%
same,"viability, T/C",[25],73%
same,"viability, T/C",[26],63%
same,"viability, T/C",[27],40%
same,"viability, T/C",[28],13.6%
same,"viability, T/C",[29],21.1%
same,"viability, T/C",[30],19.1%
same,"viability, T/C",[31],79%
same,"viability, T/C",[32],53.2%
same,"viability, T/C",[33],46.2%
same,"viability, T/C",[34],16.3%
same,"viability, T/C",[35],14.5%
same,"viability, T/C",[36],17.1%
CC(C)(O)C1CCC(Nc2ccc3ncc(-c4cccc(C(F)(F)F)c4)n3n2)CC1 (centres undefined) + Cc1[nH]c2ccc(F)cc2c1-c1nc2c3cccnc3c3ncccc3c2[nH]1,pIC50,second compound 0.0316 µM,5.79
same,pIC50,second compound 0.1 µM,5.69
same,pIC50,second compound 0.316 µM,5.71
same,pIC50,second compound 1 µM,5.77
same,pIC50,second compound 3.16 µM,6.35
same,pIC50,second compound 10 µM,6.26
same,"viability, T/C",[1],95.6%
same,"viability, T/C",[2],104%
same,"viability, T/C",[3],111%
same,"viability, T/C",[4],59.3%
same,"viability, T/C",[5],28.3%
same,"viability, T/C",[6],46.5%
same,"viability, T/C",[7],75.3%
same,"viability, T/C",[8],105%
same,"viability, T/C",[9],90.4%
same,"viability, T/C",[10],68.1%
same,"viability, T/C",[11],39.8%
same,"viability, T/C",[12],33.2%
same,"viability, T/C",[13],103%
same,"viability, T/C",[14],97.9%
same,"viability, T/C",[15],108%
same,"viability, T/C",[16],73.4%
same,"viability, T/C",[17],28.5%
same,"viability, T/C",[18],36.6%
same,"viability, T/C",[19],76.7%
same,"viability, T/C",[20],99%
same,"viability, T/C",[21],106%
same,"viability, T/C",[22],68.8%
same,"viability, T/C",[23],26.2%
same,"viability, T/C",[24],30.9%
same,"viability, T/C",[25],64.6%
same,"viability, T/C",[26],70.4%
same,"viability, T/C",[27],56.2%
same,"viability, T/C",[28],32.8%
same,"viability, T/C",[29],15.4%
same,"viability, T/C",[30],13.8%
same,"viability, T/C",[31],70.1%
same,"viability, T/C",[32],85.7%
same,"viability, T/C",[33],57.3%
same,"viability, T/C",[34],39.4%
same,"viability, T/C",[35],12.7%
same,"viability, T/C",[36],14%
